Test results from paper PMC6156125, “Chemistry and Hypoglycemic Activity of GPR119 Agonist ZB-16” (Frontiers in Endocrinology, 2018).
Values after ≈ are worked out from the molar mass of the structure shown.

Key:
[1] = target: T1, human GPR119 (hGPR119) (Homo sapiens, UniProt Q8TDV5); experiment: Specific (agonistic) activity in vitro, cAMP increase (Lance Ultra cAMP kit) in CHO-K1 cells expressing hGPR119; format: cell-based; settings: CHO-K1 hGPR119, cAMP
T1 construct: expressed in transfected cells; host or cells: CHO-K1 (Chinese hamster ovary)
T1 sequence (Q8TDV5 1-335): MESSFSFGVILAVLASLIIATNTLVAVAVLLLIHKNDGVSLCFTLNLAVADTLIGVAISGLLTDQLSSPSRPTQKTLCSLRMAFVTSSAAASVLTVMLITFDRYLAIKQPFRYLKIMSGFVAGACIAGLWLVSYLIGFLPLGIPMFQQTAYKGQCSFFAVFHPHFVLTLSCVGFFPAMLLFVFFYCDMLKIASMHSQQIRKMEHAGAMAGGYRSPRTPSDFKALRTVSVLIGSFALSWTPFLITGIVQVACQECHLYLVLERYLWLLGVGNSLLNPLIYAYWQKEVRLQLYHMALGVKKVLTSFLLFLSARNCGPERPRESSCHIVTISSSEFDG
Protocol: Specific activity was evaluated using an immortalized Chinese hamster ovary cell line CHO-K1 steadily expressed human GPR119 (hGPR119). The cells (10^7 ml^−1) were cultured in Dulbecco's modified Eagle medium (DMEM) modified with 10% fetal bovine serum (FBS), revolved continuously at 50 rpm at 37°C in 8% CO2 for 3–4 days. Lance Ultra cAMP kit (Perkin Elmer, Waltham, MA, USA) was chosen as the experimental platform ([13]). The experiments were performed in accordance to the manufacturer's instructions. The agonistic activity of the test compounds was estimated by the increase in intracellular cAMP concentration, assuming the hGPR119 activation is followed by the activation of cellular adenylate cyclase, which increases intracellular cAMP levels ([4], [14]). Known agonists of hGPR119 receptors were used as positive controls to determine the maximal possible effect (MPE). The activity of test compounds was expressed in terms of median effective concentration (EC50).

[2] = physchem; settings: kinetic from dmso stock
[3] = Biotransformation in vitro, microsomal stability (human); format: in vitro ADME; settings: for ER / CLh: Human microsomal fraction; for CLh: in mL/min/kg (unit assumed); for microsomal CLint at 0.5 μM / half-life at 0.5 μM: liver microsomal fraction; for half-life at 0.5 μM: NADPH, read-out: t1/2, min
Protocol: (§1) The metabolism of the compounds was studied in commercially available microsomal fractions derived from human and rat hepatocytes. Test compounds (0.5 μM) were incubated with microsomal fractions in the presence of NADPH during 30 min in a shaker at 37°C. Reactions were stopped at 0, 5, 10, 15, and 30 min by adding acetonitrile. After proteins precipitation, the remaining amount of the test compound in the supernatant was detected with high performance liquid chromatography tandem-mass spectrometry (HPLC-MS/MS) method using Agilent 1260 liquid chromatograph (Agilent Technologies, Santa Clara, CA, USA) and a QTRAP6500 triple quadrupole mass spectrometer with a TurboIonSpray electro-spraying module (ABSciex, Foster City, CA, USA) ([15]). Incubation was performed twice, with at least 2 measurements for each replicate (n ≥ 3). The half-life (T1/2), the clearance in vitro (CLint) and the remaining amount of substance (% of initial quantity) were calculated.

[4] = Biotransformation in vitro, microsomal stability (rat); format: in vitro ADME; settings: for ER / CLh: Rat microsomal fraction; for CLh: in mL/min/kg (unit assumed); for microsomal CLint at 0.5 μM / half-life at 0.5 μM: liver microsomal fraction; for half-life at 0.5 μM: NADPH, read-out: t1/2, min
Protocol: as §1

[5] = Biotransformation in vitro, microsomal stability (mouse); format: in vitro ADME
Protocol: as §1

[6] = target: T2, CYP1A2 (Homo sapiens, UniProt P05177); experiment: CYP inhibition, Vivid CYP450 Screening Kit; format: in vitro ADME; settings: 0.0046 to 10 μM tested
T2 construct: purchased Invitrogen Corporation, Carlsbad, CA, USA
T2 sequence (P05177 1-516): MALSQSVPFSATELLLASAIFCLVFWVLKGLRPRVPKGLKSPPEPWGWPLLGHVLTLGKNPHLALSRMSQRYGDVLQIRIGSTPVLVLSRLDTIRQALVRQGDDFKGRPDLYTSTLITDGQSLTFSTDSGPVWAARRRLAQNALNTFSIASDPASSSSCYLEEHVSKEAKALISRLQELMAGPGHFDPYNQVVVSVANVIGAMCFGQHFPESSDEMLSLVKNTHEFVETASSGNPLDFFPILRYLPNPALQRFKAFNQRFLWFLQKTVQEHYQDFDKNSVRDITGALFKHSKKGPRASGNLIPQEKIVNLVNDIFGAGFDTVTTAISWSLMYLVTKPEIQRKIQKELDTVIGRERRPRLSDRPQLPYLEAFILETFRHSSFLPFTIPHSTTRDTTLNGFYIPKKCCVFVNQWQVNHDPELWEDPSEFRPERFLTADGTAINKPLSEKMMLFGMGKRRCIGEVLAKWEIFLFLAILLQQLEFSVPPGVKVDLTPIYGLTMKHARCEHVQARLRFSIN
Protocol: (§2) Briefly, the reaction was initiated by adding NADP^+ and a substrate converted to fluorescent derivates by specific CYP isozyme. The reaction was terminated by adding 1M Tris. The fluorescence of the reaction product, which was proportional to CYP isozyme activity, was measured. […] The minimal signal was defined as the signal obtained without enzyme incubation. The inhibitory action of test compounds on the CYP isozymes was expressed in terms of median inhibitory concentration (IC50).

[7] = target: T3, CYP2C19 (Homo sapiens, UniProt P33261); experiment: CYP inhibition, Vivid CYP450 Screening Kit; format: in vitro ADME; settings: 0.0046 to 10 μM tested
T3 construct: purchased Invitrogen Corporation, Carlsbad, CA, USA
Protocol: as §2

[8] = target: T4, CYP2C9 (Homo sapiens, UniProt P11712); experiment: CYP inhibition, Vivid CYP450 Screening Kit; format: in vitro ADME; settings: 0.0046 to 10 μM tested
T4 construct: purchased Invitrogen Corporation, Carlsbad, CA, USA
Protocol: as §2

[9] = target: T5, CYP2D6 (Homo sapiens, UniProt P10635); experiment: CYP inhibition, Vivid CYP450 Screening Kit; format: in vitro ADME; settings: 0.0046 to 10 μM tested
T5 construct: purchased Invitrogen Corporation, Carlsbad, CA, USA
Protocol: as §2

[10] = target: T6, CYP3A4 (Homo sapiens, UniProt P08684); experiment: CYP inhibition, Vivid CYP450 Screening Kit; format: in vitro ADME; settings: 0.0046 to 10 μM tested
T6 construct: purchased Invitrogen Corporation, Carlsbad, CA, USA
Protocol: as §2

[11] = target: T7, hERG potassium channels (Homo sapiens, UniProt Q12809); experiment: Cardiac toxicity, Predictor hERG fluorescence polarization binding
T7 construct: purchased Invitrogen Corporation, Carlsbad, CA, USA
Protocol: Cardiac toxicity was evaluated by estimating the influence of each substance on hERG potassium channels using the in vitro test system Invitrogen® PredictorTM hERG (Invitrogen Corporation, Carlsbad, CA, USA), containing Predictor hERG membrane preparations, fluorescent tracer stock solution and an assay buffer solution. Experimental procedures were conducted in accordance with the PredictorTM hERG test system's manufacturer instructions. Assays were performed in 384-well microplates. Each well contained 5 μL aliquot of each concentration of test compound, 10 μL of (2X) membrane preparation and 5 μL of working tracer solution. The cumulative reaction volume was 20 μl with 1% of DMSO ([19]). All procedures were performed at 4 replicates for each concentration. The plate was allowed to incubate at room temperature for at least 1 h prior to fluorescence polarization measurements performed with a microplate reader Infinite M1000 PRO (Tecan).

[12] = tested on: rats with streptozotocin-nicotinamide (STZ-NA) induced T2D; experiment: Hypoglycemic activity after continuous (28 days) oral administration in T2D rat model, OGTT; format: in vivo; settings: daily oral ZB-16 1 mg/kg or sitagliptin 10 mg/kg for 28 days, STZ-NA T2D
Protocol: Procedures were performed in 40 female Wistar rats weighing 250–280 g. Streptozotocin-nicotinamide-induced rat model of T2D was used ([24], [25]). Briefly, streptozotocin (Sigma, St. Louis, MO, USA) was administered i.p. to overnight fasted rats (65 mg/kg in 100 mmol/l citrate buffer, Ph 4.5). Nicotinamide (Sigma, St. Louis, MO, USA) (230 mg/kg) dissolved in saline was administered i.p. 15 min before streptozotocin. STZ-NA T2D had been confirmed 72 h after in rats with blood glucose levels in a range 9–14 mmol/l measured in fasting (6 h) conditions. […] Following the continuous oral administration of sitagliptin (10 mg/kg), ZB-16 (1 mg/kg) or saline during 28 days STZ-NA T2D confirmation the fasting blood glucose levels were measured, and oral glucose tolerance test (OGTT) was performed. For OGTT rats received an oral dose of […] glucose dissolved in saline; blood glucose levels were monitored every 30 min for 2 h after glucose administration. Sitagliptin dose was chosen in accordance with published data ([26]).

[13] = Britton-Robinson universal buffer, pH 2, aqueous buffer
[14] = Britton-Robinson universal buffer, pH 4, aqueous buffer
[15] = Britton-Robinson universal buffer, pH 7, aqueous buffer

T7 sequence (Q12809 whole entry): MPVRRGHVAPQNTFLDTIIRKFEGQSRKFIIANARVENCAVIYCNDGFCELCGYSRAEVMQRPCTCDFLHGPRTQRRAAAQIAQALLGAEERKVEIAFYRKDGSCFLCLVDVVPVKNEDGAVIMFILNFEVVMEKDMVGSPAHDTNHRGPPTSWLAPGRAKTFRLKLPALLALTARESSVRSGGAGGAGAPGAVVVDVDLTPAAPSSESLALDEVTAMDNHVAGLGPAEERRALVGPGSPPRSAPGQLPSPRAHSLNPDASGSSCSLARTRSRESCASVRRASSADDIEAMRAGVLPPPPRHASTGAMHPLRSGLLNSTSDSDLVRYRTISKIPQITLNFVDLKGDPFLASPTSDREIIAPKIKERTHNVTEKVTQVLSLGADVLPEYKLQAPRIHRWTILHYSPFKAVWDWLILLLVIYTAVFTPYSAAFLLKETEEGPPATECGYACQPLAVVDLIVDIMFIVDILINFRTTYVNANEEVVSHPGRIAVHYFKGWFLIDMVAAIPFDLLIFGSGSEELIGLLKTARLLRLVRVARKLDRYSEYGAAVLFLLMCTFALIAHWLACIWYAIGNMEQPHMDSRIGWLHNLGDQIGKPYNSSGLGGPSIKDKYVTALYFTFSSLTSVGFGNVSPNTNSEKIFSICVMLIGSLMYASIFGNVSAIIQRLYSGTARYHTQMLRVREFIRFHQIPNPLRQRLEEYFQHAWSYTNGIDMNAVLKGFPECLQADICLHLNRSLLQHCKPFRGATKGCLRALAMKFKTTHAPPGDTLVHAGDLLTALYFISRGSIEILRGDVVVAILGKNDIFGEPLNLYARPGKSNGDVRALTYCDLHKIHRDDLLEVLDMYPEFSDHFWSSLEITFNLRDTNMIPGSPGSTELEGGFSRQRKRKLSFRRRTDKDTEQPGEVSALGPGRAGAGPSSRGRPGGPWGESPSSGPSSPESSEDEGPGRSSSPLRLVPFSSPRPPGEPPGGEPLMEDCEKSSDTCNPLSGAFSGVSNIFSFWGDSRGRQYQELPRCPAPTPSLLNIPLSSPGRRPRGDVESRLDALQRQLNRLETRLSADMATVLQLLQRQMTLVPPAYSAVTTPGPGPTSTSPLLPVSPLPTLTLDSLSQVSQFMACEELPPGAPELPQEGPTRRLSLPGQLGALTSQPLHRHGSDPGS
T5 sequence (P10635 whole entry): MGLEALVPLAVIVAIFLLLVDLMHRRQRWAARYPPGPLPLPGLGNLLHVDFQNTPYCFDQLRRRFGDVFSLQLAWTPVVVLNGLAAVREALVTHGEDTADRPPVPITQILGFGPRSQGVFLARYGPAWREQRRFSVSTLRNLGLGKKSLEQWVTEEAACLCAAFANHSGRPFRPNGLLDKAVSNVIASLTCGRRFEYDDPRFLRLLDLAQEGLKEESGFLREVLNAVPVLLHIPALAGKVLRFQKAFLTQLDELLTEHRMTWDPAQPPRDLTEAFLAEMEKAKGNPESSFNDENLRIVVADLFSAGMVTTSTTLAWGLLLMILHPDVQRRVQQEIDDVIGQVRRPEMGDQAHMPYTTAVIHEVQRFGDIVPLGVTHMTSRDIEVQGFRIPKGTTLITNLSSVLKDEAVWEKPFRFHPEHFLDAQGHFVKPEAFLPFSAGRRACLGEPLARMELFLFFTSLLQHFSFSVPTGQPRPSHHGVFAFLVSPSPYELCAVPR
T3 sequence (P33261 whole entry): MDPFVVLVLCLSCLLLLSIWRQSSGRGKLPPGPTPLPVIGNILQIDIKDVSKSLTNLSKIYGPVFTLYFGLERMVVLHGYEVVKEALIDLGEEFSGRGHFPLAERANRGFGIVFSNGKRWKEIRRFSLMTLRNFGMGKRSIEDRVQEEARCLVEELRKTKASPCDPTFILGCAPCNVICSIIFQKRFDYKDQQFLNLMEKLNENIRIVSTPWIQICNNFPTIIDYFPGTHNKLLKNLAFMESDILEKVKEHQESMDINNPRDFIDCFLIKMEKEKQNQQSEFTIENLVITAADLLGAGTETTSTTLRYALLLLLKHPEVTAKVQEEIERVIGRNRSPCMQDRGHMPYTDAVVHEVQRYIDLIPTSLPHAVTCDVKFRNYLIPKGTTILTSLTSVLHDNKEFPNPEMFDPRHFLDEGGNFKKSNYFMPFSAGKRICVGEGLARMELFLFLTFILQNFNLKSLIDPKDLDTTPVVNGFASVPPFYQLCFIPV
T6 sequence (P08684 whole entry): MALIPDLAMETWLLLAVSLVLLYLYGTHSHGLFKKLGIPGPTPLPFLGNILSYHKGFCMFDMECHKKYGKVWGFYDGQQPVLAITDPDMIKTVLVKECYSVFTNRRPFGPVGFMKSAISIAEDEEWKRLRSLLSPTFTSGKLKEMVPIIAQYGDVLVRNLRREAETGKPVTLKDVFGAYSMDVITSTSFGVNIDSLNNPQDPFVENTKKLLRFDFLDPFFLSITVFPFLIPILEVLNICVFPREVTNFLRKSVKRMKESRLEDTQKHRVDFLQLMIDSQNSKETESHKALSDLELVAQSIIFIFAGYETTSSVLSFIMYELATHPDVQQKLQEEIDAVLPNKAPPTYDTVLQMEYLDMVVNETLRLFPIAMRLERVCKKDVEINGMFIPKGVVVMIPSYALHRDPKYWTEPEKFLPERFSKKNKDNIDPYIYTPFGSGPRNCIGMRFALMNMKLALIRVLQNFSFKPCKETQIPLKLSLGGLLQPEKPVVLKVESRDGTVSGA
T4 sequence (P11712 whole entry): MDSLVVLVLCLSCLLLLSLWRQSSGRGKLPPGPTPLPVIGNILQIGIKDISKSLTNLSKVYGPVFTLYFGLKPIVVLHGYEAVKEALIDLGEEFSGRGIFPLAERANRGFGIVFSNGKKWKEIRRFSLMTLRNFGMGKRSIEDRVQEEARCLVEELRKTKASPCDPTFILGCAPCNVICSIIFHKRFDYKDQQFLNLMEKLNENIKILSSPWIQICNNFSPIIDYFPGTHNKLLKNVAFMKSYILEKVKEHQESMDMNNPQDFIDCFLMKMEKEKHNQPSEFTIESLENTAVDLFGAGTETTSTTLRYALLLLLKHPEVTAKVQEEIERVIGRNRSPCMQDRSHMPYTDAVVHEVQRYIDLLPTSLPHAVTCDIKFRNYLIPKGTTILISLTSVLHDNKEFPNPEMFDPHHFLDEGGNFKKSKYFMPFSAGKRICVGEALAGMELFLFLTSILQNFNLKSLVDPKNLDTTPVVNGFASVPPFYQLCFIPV

Row | EC50 [1] [nM] | ER [3] | CLh [3] | microsomal CLint at 0.5 μM [3] [µL/min/mg] | half-life at 0.5 μM [3] [min] | ER [4] | CLh [4] | microsomal CLint at 0.5 μM [4] [µL/min/mg] | half-life at 0.5 μM [4] [min] | solubility [2, 13] [µM] | solubility [2, 14] [µM] | solubility [2, 15] [µM] | SMILES | further results
1 | 10700 | – | – | – | – | – | – | – | – | – | – | – | CCN1C(=O)c2ccccc2S(=O)(=O)c2ccc(C(=O)NCc3ccc(F)cc3)cc21 [C530-0339] | –
2 | – | – | – | – | – | – | – | – | – | – | – | – | CC/C(=C(/CC)c1ccc(O)cc1)c1ccc(O)cc1 [Diethylstilbestrol, reference compound] | Solubility (μM) UB, 2% DMSO pH 2 (pH 2): 15 μM; Solubility (μM) UB, 2% DMSO pH 4 (pH 4): 14 μM; Solubility (μM) UB, 2% DMSO pH 7 (pH 7): 14 μM; solubility ([2]; pH 2, aqueous buffer): 12 µM (≈ 3.22 µg/mL); solubility ([2]; pH 4, aqueous buffer): 10 µM (≈ 2.68 µg/mL); solubility ([2]; pH 7, aqueous buffer): 12 µM (≈ 3.22 µg/mL)
3 | – | 0.94 | 20.44 | 666 | 4.16 | 0.74 | 40.97 | 89.2 | 31.1 | < 3 | < 3 | < 3 | CC(C)(C)OC(=O)N1CCC(COc2ccc(-c3ccc4c(c3)OCS4(=O)=O)cc2F)CC1 [ZB-09] | EC50 ([1]; values of the text): 4 nM; CLh ([5]; Mouse microsomal fraction): 84.06; ER ([5]; Mouse microsomal fraction): 0.93; microsomal CLint at 0.5 μM ([5]; liver microsomal fraction): 324 µL/min/mg; half-life at 0.5 μM ([5]; liver microsomal fraction, read-out: t1/2, min): 8.57 min
4 | 11 | 0.95 | 20.66 | 1110 | 2.5 | 0.81 | 44.29 | 126 | 21.9 | < 3 | < 3 | < 3 | CC(C)(C)OC(=O)N1CCC(COc2ccc(-c3ccc4c(c3)OCS4(=O)=O)cn2)CC1 [ZB-19] | –
5 | 29.3 | 0.76 | 16.57 | 68 | 40.8 | 0.41 | 22.53 | 21.2 | 131 | < 3 | < 3 | < 3 | O=S1(=O)COc2cc(-c3ccc(OCC4CCN(c5ncc(Cl)cn5)CC4)nc3)ccc21 [ZB-20] | EC50 ([1]; values of the text): 29 nM; IC50 [6]: > 10000 nM; IC50 [7]: > 10000 nM; IC50 [8]: > 10000 nM; IC50 [9]: > 10000 nM; IC50 [10]: > 10000 nM; Average polarization mP (n = 4) ([11]; 1 μM): 261 mP; Unbound hERG % ([11]; 1 μM): 89%; Average polarization mP (n = 4) ([11]; 10 μM): 263 mP; Unbound hERG % ([11]; 10 μM): 91%
6 | 63.5 | – | – | – | – | – | – | – | – | 25 (≈ 11.5 µg/mL) | < 3 | < 3 | O=S1(=O)COc2cc(-c3ccc(OCC4CCN(CC(F)(F)F)CC4)c(F)c3)ccc21 [ZB-18] | –
7 | 71.3 | – | – | – | – | – | – | – | – | – | – | – | CCN1C(=O)c2ccccc2S(=O)(=O)c2ccc(C(=O)NCCc3ccc(Cl)cc3)cc21 [C530-0315] | –
8 | – | – | – | – | – | – | – | – | – | – | – | – | N[C@@H](CC(=O)N1CCn2c(nnc2C(F)(F)F)C1)Cc1cc(F)c(F)cc1F [sitagliptin, reference compound] | blood glucose levels [12]: reduction
9 | 12.5 | – | – | – | – | – | – | – | – | < 3 | < 3 | < 3 | CC(C)OC(=O)N1CCC(COc2ccc(-c3ccc4c(c3)OCS4(=O)=O)cc2F)CC1 [ZB-17] | –
